Reference: patent US10295530B2, “Functional assay for cancer recurrence and malignant potential” (THE BRIGHAM AND WOMEN'S HOSPITAL, INC., priority 2012, dated 2019)

Tests used:
[1] = patients treated with erlotinib (Numico et al., 2011); cited from earlier work
HMLER-HR responder cells = HMLER-HR responder cells in depleted medium (D.M.) plus EGF and/or insulin, 4 days: flow cytometry and qPCR; assay type: cell-based, human; conditions: for CD44 expression / CD44/CD24 expression patterns (flow cytometry) / Oct4 expression (qPCR) / Zeb1 expression (qPCR) / c-Myc expression (qPCR): added to cells kept in D.M. for 4 days, relative to C.M.
Description: FIG. 23D. Flow cytometric density plots representing CD44/CD24 profiles of responding tumor cells after 4 days in depleted medium, D.M. (medium devoid of EGF and insulin), or D.M.+indicated supplements. Graph represents average responding tumor cell CD441CD24 profiles under indicated conditions relative to that of C.M (samples run in triplicate).
FIG. 23E. Expression levels of indicated malignancy profile genes in responder tumor cells after 4 days in indicated culture conditions relative to those maintained in C.M. Data represent average of three independent experiments, where each sample was run in triplicate.
FIG. 26E. Expression levels of c-myc in HMLER-HR responding tumor cells after 4 days in response to indicated doses of EGF. Data are represented relative to cells that had been maintained in depleted medium (D.M.; medium devoid of EGF and insulin). Data are expressed as mean±SEM; samples tested in triplicate.
HMLER-HR cells were maintained in DMEM-F12 (1:1) medium, supplemented with 5% calf serum, 10 ng/ml human recombinant EGF (Sigma E9644), 10 μg/ml insulin (Sigma 19278), 1 μg/ml hydrocortisone (Sigma 110888) and 1% penicillin-streptomycin. BPLER cells were maintained in WIT Medium (STEMGENT), and MCF7-Ras cells in DMEM media (Thermo Scientific) supplemented with 10% heat inactivated FBS (GIBCO), and 1% penicillin-streptomycin. BT549 cells were maintained in RPMI medium supplemented with 10% FBS.
RNA was extracted from cells or snap-frozen tissues using Trizol reagent following manufacturer's instructions (INVITROGEN). RNA was retrotranscribed with ProtoScript AMV First Strand cDNA Synthesis Kit (New England BioLabs). PCR amplification was performed on a ABI Prism 7900 sequence detector using SYBR-Green (Applied Biosystems). Analysis was done using delta-delta Ct method, normalizing first to GAPDH.
Whether EGFR and IGF1R signaling were necessary and/or sufficient for modulating responding tumor malignancy remained to be investigated. To do so, the effects of either depleting EGF and/or insulin from HMLER-HR responder cells that had been cultured in complete medium (C.M.) or adding EGF and/or insulin to cells that had been cultured in depleted medium (D.M., medium depleted of both EGF and insulin) were examined. For these studies, cells were treated under various conditions for 4 days, then assessed differentiation status by flow cytometry, expression of malignancy factors (e.g. Oct-4, Zeb1, c-myc) by qPCR, and tumor-forming capacity by soft agar colony formation.

[2] = system: responding tumors (HMLER-HR) opposite instigating LBC; assay: Aspirin treatment in LBC-mediated systemic instigation: responding tumors; assay type: in vivo, mice; conditions: aspirin 100 mg/kg i.p. once per week
Experimental: (§1) FIG. 35A. Experimental scheme to test effects of aspirin on LBC-mediated systemic instigation. All mice were injected with responders and LBC instigating tumors and treated with either 100 mg/kg aspirin or vehicle control; n=10 (5 mice per cohort for 2 independent experiments).
All experiments were performed in accordance with regulations of the Children's Hospital Boston Institutional Animal Care and Use Committee (protocol 09-12-1566). Unless otherwise indicated, tumor cells were suspended in 20% […] (BD Biosciences) and injected subcutaneously into nonirradiated mice. Tumors were measured on the flanks of live mice using calipers; volume was calculated as 0.5*length*(width^2).
(§2) 450 mg Aspirin (Sigma, A2093-100G) was dissolved in 11 ml DMSO to make a 41 mg/ml concentrated stock solution. 30 min before injection, 1.6 ml of stock solution was diluted in 11.6 ml of PBS to make a 5 mg/ml injection solution.
(§3) Vehicle control was made with 1.6 ml DMSO diluted in 11.6 ml PBS. Mice were injected i.p. with aspirin at 100 mg/kg, once per week. A similar volume:weight ratio of vehicle was administered to control animals.
(§4) In order to explore therapeutic potential and identify whether platelets were necessary for delivering the pro-tumorigenic instigating stimulus in the LBC macroenvironment, we treated mice with aspirin, which inhibits platelet activity (28). Mice were injected with LBC instigators that were permitted to grow for 4 weeks prior to initiation of weekly treatments of either aspirin or vehicle control; responders were then injected into these mice two days following the first aspirin treatment (FIG. 35A). While responding tumors formed in 90% of the mice treated with vehicle control, only 20% of the mice treated with aspirin developed responding tumors (FIG. 35B).

GFP+ responder cells = assay: Co-culture of GFP+ responder cells with BMCs from aspirin or vehicle treated mice, CD24 by flow cytometry; assay type: cell-based, human; conditions: BMCs from aspirin treated LBC-bearing mice; same with vehicle
Experimental: FIG. 35D. Flow cytometric analysis of CD24 expression on GFP+ responder cells co-cultured with indicated BMCs.
BMCs were harvested and tested for functional activity as previously described (McAllister et al., 2008). In vitro instigation assays were conducted by co-culturing 1×10^4 GFP-positive responder tumor cells with 1×10^6 BMCs harvested from mice bearing […], TNBC or LBC Instigators. Co-cultured cells were maintained for 4 days in BMDC medium (DMEM, 5% FBS, 5% horse serum, 10^−6 M hydrocortisone), adding fresh medium on day 2.
In order to understand whether BMCs from LBC tumor bearing mice directly mediated tumor cell surface enrichment of CD24, adherent GFP-positive (GFP+) responding tumor cells were cultured with BMCs prepared from various cohorts of mice and analyzed tumor cell expression of CD24 after 4 days by flow cytometry.

[3] = system: instigating LBC tumor / host platelets and bone marrow; assay: Aspirin treatment in LBC-mediated systemic instigation: instigating LBC tumor, platelet counts, bone marrow VEGFR2+ cells; assay type: in vivo, mice; conditions: aspirin 100 mg/kg i.p. once per week vs vehicle
Experimental: as §1
FIG. 35C. Numbers of VEGFR2+ cells in the bone marrow of experimental mice relative to those of cancer-free mice.
as §2, §3
as §4, with “While responding tumors formed in 90% of the mice treated with vehicle control, only 20% of the mice treated with aspirin developed responding tumors (FIG. 35B).” left out

Compound | CD44 expression / CD44/CD24 expression patterns (flow cytometry) (HMLER-HR responder cells) | Oct4 expression (qPCR) (HMLER-HR responder cells) | Zeb1 expression (qPCR) (HMLER-HR responder cells) | c-Myc expression (qPCR) (HMLER-HR responder cells) | further results
C#Cc1cccc(Nc2ncnc3cc(OCCOC)c(OCCOC)cc23)c1 [erlotinib] | – | – | – | – | adverse effect reported for patients [1]: skin rash
EGF: human recombinant EGF (Sigma E9644) | sufficient to restore | unaffected | restored | restored | c-myc upregulation in response to doses of EGF (HMLER-HR responder cells; HMLER-HR, 4 days, relative to D.M.): dose-dependent
CC(=O)Oc1ccccc1C(=O)O [aspirin, Aspirin] | – | – | – | – | incorporation of VEGFR2-positive cells into responding tumor sites ([2]; LBC instigating environment): completely inhibited; p-STAT3 in responding tumor site tissues ([2]; LBC instigating environment): negative; mice that developed responding tumors (incidence) ([2]; LBC instigators, vehicle control 90%): 20%; increase in tumor cell CD24 expression above control BMCs from tumor-free mice (GFP+ responder cells): ~90%; instigating LBC tumor growth [3]: did not significantly affect
insulin: insulin (Sigma 19278), medium supplement | not sufficient to restore | restored | remained significantly lower than the controls | remained significantly lower than the controls | –
